Here are results for 2 molecules from patent US8629186B2, “Polymer micelles containing anthracyclines for the treatment of cancer” (Intezyne Technologies, Inc., priority 2009, dated 2014).

Like-named read-outs stand apart in the source and are kept apart here.

Series [1] can be described thus: Rat pharmacokinetics of daunorubicin micelles compared to free daunorubicin (Example 54). The class given is in vivo, Fisher rats. Particulars: plasma. As for the experimental part: The delivery vehicle for drug administration was isotonic saline.
This study was repeated, and the micelles were injected in the same rats seven days after the first injection. The pharmacokinetic results are shown in the table below, and graphed in FIG. 22.

Series [2] deals with 786-0 cells. Description: Cytotoxicity of daunorubicin micelles compared to free daunorubicin, 72 hours, Cell-Titer Glo. The class given is cell-based. Particulars: Homo sapiens, 786-0, 72 h. As for the experimental part:
(§1) All cell lines were obtained from ATCC (Manassas, Va.). Media and supplements were obtained from Cell Gro (Manassas, Va.). HT-1080 cells were maintained in Eagle's Minimum Essential Medium supplemented with 10% FBS, 2 mM L-Glutamine, 1 mM sodium pyruvate, and 100 units/mL of penicillin and streptomycin. […] Cells were treated in triplicate. […] It should be noted that the IC50 values of the daunorubicin micelles are very similar to free daunorubicin.

Series [3] deals with HT-1080 cells. The description is as above. The class given is cell-based. Conditions: Homo sapiens, HT-1080, 72 h. The protocol:
as §1

The subject of series [4] is MG-63 cells. The series is described as above. Particulars: Homo sapiens, MG-63, 72 h. Type of series: cell-based. The protocol:
as §1

Series [5] relates to SKOV-3 cells. The series is described as above. The class given is cell-based. Particulars: Homo sapiens, SK-OV-3, 72 h. As for the experimental part: as §1
The nature of series [6]: Pharmacokinetics of crosslinked DOX loaded micelles in mice (Example 29). Conditions: athymic nude mice, 15 mg/kg fast IV bolus tail vein, plasma doxorubicin. The protocol:
Athymic nude mice were injected with 15 mg/kg of either doxorubicin, crosslinked dox loaded micelles (IT-143, Example 24), or dox loaded micelles (Example 23) by a fast IV bolus into the tail vein with an injection volume of 0.2-0.4 mL. The delivery vehicle for drug administration was isotonic saline. Mouse blood was collected from mice into K2-EDTA tubes by heart puncture at time points of 5 minutes, 15 minutes, 1 hour, and 4 hours. Plasma was isolated by centrifugation at 1000 RPM for 5 minutes, and 150 uL of extraction solution (ice cold methanol/100 ng/mL daunorubicin internal standard) was added to 50 uL of each plasma sample. Samples are then vortexed for 10 minutes, centrifuged at 13,000 RPM for 10 minutes, and 150 uL of the supernatant is transferred to HPLC vials for analysis.
(§2) Samples were analyzed on a Waters Alliance 2695 equiped with a 2475 fluorescence detector (Ex=470 nm; Em=580). A 5 μL sample injection was made onto a Waters 4 μm Nova Pak C18 (3.9×150 mm) at 30° C. with a flow rate of 0.750 mL per minute of 10 mM phosphate buffer (pH=1.4), methanol and acetonitrile (gradient from 70/10/20 to 40/10/50 for buffer/methanol/acetonitrile was made over eight minutes).

The conditions of series [7]: rat, in vivo, iv, 10 mg/kg. As for the experimental part: The delivery vehicle for drug administration was isotonic saline. Rat blood was collected from the catheter into K2-EDTA tubes […] at time points of 1, minute, 5 minutes, 15 minutes, 1 hour, 4 hours, 8 hours and 24 hours. Plasma was isolated by centrifugation at 1000 RPM for 5 minutes, and 150 uL of extraction solution (ice cold methanol/100 ng/mL daunorubicin internal standard) was added to 50 uL of each plasma sample. Samples were then vortexed for 10 minutes, centrifuged at 13,000 RPM for 10 minutes, and 150 uL of the supernatant is transferred to HPLC vials for analysis.
as §2

As to `COc1cccc2c1C(=O)c1c(O)c3c(c(O)c1C2=O)C[C@@](O)(C(C)=O)C[C@@H]3O[C@H]1C[C@H](N)[C@H](O)[C@H](C)O1` [Daunorubicin, daunorubicin], the Cmax – broadly, the peak of the concentration-time curve – in series [1] (Fisher rats, 10 mg/kg fast IV bolus, Day 0 (first injection)) came out at 3290 ng/mL; in series [1] (Fisher, rat, intravenous, 10 mg/kg, repeat experiment, same rats seven days after the first injection, read-out: Cmax), 10600 ng/mL. Also, the AUC (usually concentration integrated over time) in series [1] (Fisher, rat, intravenous, 10 mg/kg, repeat experiment, same rats seven days after the first injection) was 3540 ng·h/mL. The IC50 (in general, the concentration that gives 50% inhibition) in series [2] came out at 231 ± 11 nM; in series [3], 546 ± 57 nM; in series [4] it was 231 ± 11 nM; in series [5] it was 200 ± 12 nM.
In series [6], `COc1cccc2c1C(=O)c1c(O)c3c(c(O)c1C2=O)C[C@@](O)(C(=O)CO)C[C@@H]3O[C@H]1C[C@H](N)[C@H](O)[C@H](C)O1` [Free Dox, doxorubicin] registered an AUC of 200 ng·h/mL, a Cmax of 210 ng/mL and a T½ of 5.4 h. Moreover, in series [7], the AUC came to 2610 ng·h/mL and the Cmax amounted to 9760 ng/mL.
